Data taken from the NIST ThermoML archive (doi:10.1021/je400539h).
± gives the expanded uncertainty stated by the source.

Assay: xn = mol fraction of the nth substance listed
Conditions: 101 kPa, Liquid

CCCCCCOC(C)=O [hexyl ethanoate] + C1CCOC1
Conditions	mass density [kg/m3]	speed of sound [m/s]	viscosity [mPa·s]
298.15 K, x1 = 0.0514	882.2 ± 1.4	1260 ± 11	0.485 ± 0.016
298.15 K, x1 = 0.1091	882.2 ± 1.4	1256 ± 11	0.526 ± 0.017
298.15 K, x1 = 0.1735	882.1 ± 1.4	1248 ± 11	0.57 ± 0.017
298.15 K, x1 = 0.2467	881.7 ± 1.4	1240 ± 11	0.616 ± 0.018
298.15 K, x1 = 0.3289	880.9 ± 1.4	1236 ± 11	0.669 ± 0.019
298.15 K, x1 = 0.4241	879.6 ± 1.4	1232 ± 11	0.73 ± 0.02
298.15 K, x1 = 0.5384	877.8 ± 1.4	1232 ± 11	0.79 ± 0.021
298.15 K, x1 = 0.6648	875.5 ± 1.4	1232 ± 11	0.875 ± 0.022
298.15 K, x1 = 0.8185	872.4 ± 1.4	1232 ± 11	0.967 ± 0.024
298.15 K, x1 = 1	868.3 ± 1.5	1236 ± 11	1.071 ± 0.026
303.15 K, x1 = 0.0514	878.8 ± 1.4	1236 ± 11	0.471 ± 0.016
303.15 K, x1 = 0.1091	878.6 ± 1.4	1232 ± 11	0.504 ± 0.016
303.15 K, x1 = 0.1735	878.3 ± 1.4	1224 ± 11	0.543 ± 0.017
303.15 K, x1 = 0.2467	877.6 ± 1.4	1212 ± 11	0.584 ± 0.018
303.15 K, x1 = 0.3289	876.6 ± 1.4	1208 ± 11	0.632 ± 0.018
303.15 K, x1 = 0.4241	875.2 ± 1.4	1204 ± 11	0.683 ± 0.019
303.15 K, x1 = 0.5384	873.3 ± 1.4	1204 ± 11	0.745 ± 0.02
303.15 K, x1 = 0.6648	870.9 ± 1.4	1204 ± 11	0.812 ± 0.021
303.15 K, x1 = 0.8185	867.7 ± 1.5	1204 ± 11	0.892 ± 0.023
303.15 K, x1 = 1	863.9 ± 1.5	1216 ± 11	0.982 ± 0.024
308.15 K, x1 = 0.0514	872.9 ± 1.4	1216 ± 11	0.456 ± 0.016
308.15 K, x1 = 0.1091	872.7 ± 1.4	1208 ± 11	0.484 ± 0.016
308.15 K, x1 = 0.1735	872.4 ± 1.4	1200 ± 11	0.518 ± 0.016
308.15 K, x1 = 0.2467	871.9 ± 1.4	1188 ± 10	0.554 ± 0.017
308.15 K, x1 = 0.3289	871.2 ± 1.4	1184 ± 10	0.595 ± 0.018
308.15 K, x1 = 0.4241	870 ± 1.4	1180 ± 10	0.641 ± 0.018
308.15 K, x1 = 0.5384	868.2 ± 1.5	1180 ± 10	0.692 ± 0.019
308.15 K, x1 = 0.6648	866 ± 1.5	1180 ± 10	0.751 ± 0.02
308.15 K, x1 = 0.8185	863 ± 1.5	1180 ± 10	0.819 ± 0.022
308.15 K, x1 = 1	859.8 ± 1.5	1196 ± 11	0.898 ± 0.023
313.15 K, x1 = 0.0514	866.7 ± 1.5	1200 ± 11	0.416 ± 0.015
313.15 K, x1 = 0.1091	866.5 ± 1.5	1188 ± 10	0.444 ± 0.015
313.15 K, x1 = 0.1735	866.2 ± 1.5	1176 ± 10	0.475 ± 0.016
313.15 K, x1 = 0.2467	865.8 ± 1.5	1168 ± 10	0.508 ± 0.016
313.15 K, x1 = 0.3289	865.2 ± 1.5	1164 ± 10	0.547 ± 0.017
313.15 K, x1 = 0.4241	864.2 ± 1.5	1156 ± 10	0.591 ± 0.018
313.15 K, x1 = 0.5384	862.6 ± 1.5	1152 ± 10	0.639 ± 0.018
313.15 K, x1 = 0.6648	860.5 ± 1.5	1152 ± 10	0.695 ± 0.019
313.15 K, x1 = 0.8185	857.8 ± 1.5	1152 ± 10	0.761 ± 0.02
313.15 K, x1 = 1	855 ± 1.5	1176 ± 10	0.836 ± 0.022

CCCCCCOC(C)=O [hexyl ethanoate] + COc1ccccc1
Conditions	mass density [kg/m3]	speed of sound [m/s]	viscosity [mPa·s]
298.15 K, x1 = 0.0698	979.8 ± 1	1376 ± 12	1.022 ± 0.025
298.15 K, x1 = 0.1417	969.7 ± 1	1360 ± 12	1.031 ± 0.025
298.15 K, x1 = 0.221	959 ± 1.1	1344 ± 11	1.038 ± 0.026
298.15 K, x1 = 0.3061	947.7 ± 1.1	1328 ± 11	1.047 ± 0.026
298.15 K, x1 = 0.398	935.8 ± 1.2	1312 ± 11	1.054 ± 0.026
298.15 K, x1 = 0.4979	923.4 ± 1.2	1300 ± 11	1.058 ± 0.026
298.15 K, x1 = 0.606	910.5 ± 1.3	1284 ± 11	1.061 ± 0.026
298.15 K, x1 = 0.7254	896.9 ± 1.3	1268 ± 11	1.065 ± 0.026
298.15 K, x1 = 0.8556	882.9 ± 1.4	1252 ± 11	1.07 ± 0.026
298.15 K, x1 = 1	868.3 ± 1.5	1236 ± 11	1.071 ± 0.026
303.15 K, x1 = 0.0698	975 ± 1	1360 ± 12	0.932 ± 0.024
303.15 K, x1 = 0.1417	964.7 ± 1.1	1340 ± 11	0.94 ± 0.024
303.15 K, x1 = 0.221	953.8 ± 1.1	1324 ± 11	0.95 ± 0.024
303.15 K, x1 = 0.3061	942.6 ± 1.1	1304 ± 11	0.959 ± 0.024
303.15 K, x1 = 0.398	930.8 ± 1.2	1288 ± 11	0.967 ± 0.024
303.15 K, x1 = 0.4979	918.4 ± 1.2	1272 ± 11	0.972 ± 0.024
303.15 K, x1 = 0.606	905.5 ± 1.3	1260 ± 11	0.975 ± 0.024
303.15 K, x1 = 0.7254	891.9 ± 1.4	1244 ± 11	0.98 ± 0.024
303.15 K, x1 = 0.8556	878 ± 1.4	1232 ± 11	0.983 ± 0.024
303.15 K, x1 = 1	863.9 ± 1.5	1216 ± 11	0.982 ± 0.024
308.15 K, x1 = 0.0698	968.1 ± 1	1340 ± 11	0.86 ± 0.022
308.15 K, x1 = 0.1417	957.8 ± 1.1	1320 ± 11	0.872 ± 0.022
308.15 K, x1 = 0.221	947.1 ± 1.1	1296 ± 11	0.878 ± 0.023
308.15 K, x1 = 0.3061	936.2 ± 1.2	1280 ± 11	0.886 ± 0.023
308.15 K, x1 = 0.398	925 ± 1.2	1264 ± 11	0.894 ± 0.023
308.15 K, x1 = 0.4979	913 ± 1.3	1248 ± 11	0.898 ± 0.023
308.15 K, x1 = 0.606	900.3 ± 1.3	1236 ± 11	0.901 ± 0.023
308.15 K, x1 = 0.7254	886.8 ± 1.4	1224 ± 11	0.903 ± 0.023
308.15 K, x1 = 0.8556	873.1 ± 1.4	1208 ± 11	0.902 ± 0.023
308.15 K, x1 = 1	859.8 ± 1.5	1196 ± 11	0.898 ± 0.023
313.15 K, x1 = 0.0698	961.6 ± 1.1	1320 ± 11	0.779 ± 0.021
313.15 K, x1 = 0.1417	951.2 ± 1.1	1296 ± 11	0.791 ± 0.021
313.15 K, x1 = 0.221	940.5 ± 1.1	1272 ± 11	0.802 ± 0.021
313.15 K, x1 = 0.3061	929.8 ± 1.2	1252 ± 11	0.811 ± 0.021
313.15 K, x1 = 0.398	918.6 ± 1.2	1236 ± 11	0.823 ± 0.022
313.15 K, x1 = 0.4979	906.8 ± 1.3	1220 ± 11	0.828 ± 0.022
313.15 K, x1 = 0.606	894.4 ± 1.3	1204 ± 11	0.833 ± 0.022
313.15 K, x1 = 0.7254	881.2 ± 1.4	1192 ± 11	0.838 ± 0.022
313.15 K, x1 = 0.8556	867.8 ± 1.5	1184 ± 10	0.84 ± 0.022
313.15 K, x1 = 1	855 ± 1.5	1176 ± 10	0.836 ± 0.022
